Assay results taken from patent publication US8778889B2, “Antimicrobial decapeptide oral hygiene treatment” (The United States of America as represented by the …, priority 2003, dated 2014).
Ends that are not written are not given here.

Columns and labels:
[1] = system: A. baumannii ATCC #19606; assay type: cell-based, Acinetobacter baumannii
Summary of the method: (§1)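 Peptide activity is expressed as inhibitory (MIC) and bactericidal (MBC) concentrations, determined with liquid-medium microdilution against resistant bacteria.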

[2] = system: A. baumannii WRAMC #11; assay type: cell-based, Acinetobacter baumannii
Summary of the method: as §1

[3] = system: A. baumannii WRAMC #13; assay type: cell-based, Acinetobacter baumannii
Summary of the method: as §1

[4] = system: A. baumannii WRAMC #14; assay type: cell-based, Acinetobacter baumannii
Summary of the method: as §1

[5] = system: A. baumannii WRAMC #16; assay type: cell-based, Acinetobacter baumannii
Summary of the method: as §1

[6] = system: A. baumannii WRAMC #17; assay type: cell-based, Acinetobacter baumannii
Summary of the method: as §1

[7] = system: A. baumannii WRAMC #18; assay type: cell-based, Acinetobacter baumannii
Summary of the method: as §1

[8] = system: A. baumannii WRAMC #19; assay type: cell-based, Acinetobacter baumannii
Summary of the method: as §1

[9] = system: A. baumannii WRAMC #2; assay type: cell-based, Acinetobacter baumannii
Summary of the method: as §1

[10] = system: A. baumannii WRAMC #4; assay type: cell-based, Acinetobacter baumannii
Summary of the method: as §1

[11] = system: A. baumannii WRAMC #5; assay type: cell-based, Acinetobacter baumannii
Summary of the method: as §1

[12] = system: A. baumannii WRAMC #8; assay type: cell-based, Acinetobacter baumannii
Summary of the method: as §1

[13] = system: oral biofilms formed by salivary bacteria on saliva-conditioned Ge surfaces; assay: Dual flow cell oral biofilm development (DIC microscopy); assay type: cell-based, human salivary bacteria
Description: The dual flow cell system used in this study was modified from the chemostat flow cells of Herles et al. (Herles et al., 1994) and constructed according to our design and specifications by BioSurface Technologies (Bozeman, Mont.) (FIG. 1). The flow cell consisted of two compartments, each containing a polycarbonate flow chamber with three recesses to hold the Ge disks (10 mm in diameter and 1.8 mm in thickness) upon which biofilms were formed. Ge disks provided reflective surfaces that allowed the visualization of unstained biofilms using differential interference contrast (DIC) microscopy.
To form biofilms, Ge disks (Mindrum, Rancho Cucamonga, Calif.) in the dual flow cell were conditioned for one hour with sterile 50% human whole saliva. Isolated salivary bacteria, adjusted to approximately 1.0×10^7 cells/ml in 50% saliva (total, 1.5 ml), were injected into the flow chambers. After two hours of initial adherence of bacteria onto disk surfaces, the flow of culture medium (20% Todd-Hewitt broth) was started at a rate of 0.2 ml/min (Foster et al., 2004). The flow rate employed generated a shear rate of approximately 9.65 s^−1 on the substrate surface, and is compatible with the fluid flow in the oral cavity (Bakker et al., 2003).
To evaluate the effects of KSL in controlling the development and maturation of oral biofilms, surface adhered cells (after initial colonization) were perfused continuously with KSL-free or KSL-containing media (KSL at 10 or 50 μg/ml). Alternatively, biofilms at different stages of maturation (i.e., 4, or 6 h after inoculation) were pulse-treated using an injection pump at 0.2 ml/min with 50 μg/ml KSL in 20% THB or the control medium for 30 min at 2 hr intervals. Direct comparison of the effects of antimicrobials on the growth of biofilms between treated versus untreated was made in real-time by DIC microscopy.

KKVVFKVKFK-NH2 [KSL, Lys-Lys-Val-Val-Phe-Lys-Val-Lys-Phe-Lys-NH2]
MBC [1]: 200 µg/mL
MIC [1]: 100 µg/mL
MBC [2]: 200 µg/mL
MIC [2]: 100 µg/mL
MBC [3]: 200 µg/mL
MIC [3]: 50 µg/mL
MBC [4]: 100 µg/mL
MBC [5]: 25 µg/mL
MBC [6]: 100 µg/mL
MBC [7]: 200 µg/mL
MIC [7]: 50 µg/mL
MBC [8]: 50 µg/mL
MBC [9]: 100 µg/mL
MBC [10]: 25 µg/mL
MIC [10]: 12.5 µg/mL
MBC [11]: 50 µg/mL
MBC [12]: 100 µg/mL
effect on oral biofilm development ([13]; continuous perfusion, KSL at 10 μg/ml): partially effective in inhibiting biofilm formation
effect on oral biofilm development ([13]; continuous perfusion, KSL at 50 μg/ml): disrupted biofilm development
effect on oral biofilm development ([13]; pulsed treatment (30 min every 2 h, 50 μg/ml) starting 4 h after inoculation): inhibited biofilm formation
effect on oral biofilm development ([13]; pulsed treatment (30 min every 2 h, 50 μg/ml) starting 6 h after inoculation): failed to inhibit the development of biofilm structures
